Experimental data taken from ChEMBL document CHEMBL3886925, “Thieno- and furo[2,3-d]pyrimidine-2,4[1H,3H]-dione derivatives” (2016).

Biological target: T1, Short transient receptor potential channel 5 (Homo sapiens, UniProt Q9UL62)
T1 sequence (Q9UL62 whole entry): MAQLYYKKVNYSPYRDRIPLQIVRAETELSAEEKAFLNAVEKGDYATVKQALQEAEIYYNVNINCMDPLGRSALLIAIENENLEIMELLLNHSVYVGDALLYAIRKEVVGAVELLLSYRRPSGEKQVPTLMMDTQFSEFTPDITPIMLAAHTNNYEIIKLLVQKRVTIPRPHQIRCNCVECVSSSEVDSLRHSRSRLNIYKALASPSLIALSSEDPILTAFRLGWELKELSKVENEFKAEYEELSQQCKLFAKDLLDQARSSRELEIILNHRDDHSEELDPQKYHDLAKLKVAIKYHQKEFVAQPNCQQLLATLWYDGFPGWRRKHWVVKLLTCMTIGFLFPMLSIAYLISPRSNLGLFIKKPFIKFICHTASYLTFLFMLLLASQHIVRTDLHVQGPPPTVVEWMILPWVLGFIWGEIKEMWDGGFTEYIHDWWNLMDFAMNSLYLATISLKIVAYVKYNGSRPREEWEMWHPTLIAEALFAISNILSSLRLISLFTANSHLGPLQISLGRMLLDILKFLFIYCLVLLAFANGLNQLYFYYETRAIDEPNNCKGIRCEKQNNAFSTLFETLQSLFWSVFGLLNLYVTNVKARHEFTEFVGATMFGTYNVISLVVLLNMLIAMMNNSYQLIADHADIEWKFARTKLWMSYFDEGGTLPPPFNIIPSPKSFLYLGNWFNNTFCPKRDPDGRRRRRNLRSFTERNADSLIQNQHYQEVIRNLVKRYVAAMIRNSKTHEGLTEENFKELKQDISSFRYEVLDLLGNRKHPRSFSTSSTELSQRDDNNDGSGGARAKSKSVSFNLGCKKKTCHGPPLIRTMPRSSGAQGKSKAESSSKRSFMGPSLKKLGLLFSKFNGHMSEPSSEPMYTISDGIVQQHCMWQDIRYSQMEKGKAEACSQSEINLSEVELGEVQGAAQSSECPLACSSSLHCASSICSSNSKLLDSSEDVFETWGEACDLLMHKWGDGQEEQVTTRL
Experiment: High Throughput Screening Assay: The commercially available HEK293/TREx line (Invitrogen) was stably transfected with a TRPC5 construct and screened by conventional calcium imaging to find clones with TRPC5 expression following stimulation with 1 μg/ml tetracycline. These cells were maintained in the growth medium recommended by the manufacturer supplemented with 100 μg/ml hygromycin to promote retention of the TRPC5 construct. After growing to near confluency, cells were plated at a density of Ë¿35,000 cells/well in 384 well CellBind plates (Corning) in the presence of 1 μg/ml tetracycline, and allowed to grow for 20-30 hrs. A nearly confluent monolayer resulted. Cells were then loaded with Ca2+ dye: Fura-2/AM or Fluo4/AM was added to the wells to a final concentration of 4 μM or 0.5 μM, respectively, and incubated for 80 min or 60 min, respectively, at room temperature. Supernatant was then removed from the cells by inverting plates with a sharp flick, and 25 μl Hank's Balanced Salt Solution (HBSS; 0.185 g/l D-glucose, 0.9767 g/l MgS04 (anhydrous), 0.4 g/l KCl, 0.06 g/l KH2PO4 (anhydrous), 0.35 g/l NaHCO3, 8.0 g/l NaCl, and 0.04788 g/l Na2HPO4 (anhydrous); pH 7.4) was then added to each well. […]

IC50 | Structure (SMILES)
194 nM | Cn1c(=O)n(CCCO)c(=O)c2c(C(O)c3ccc(Cl)cc3)c(Oc3cccc(OC(F)(F)F)c3)sc21 (configuration not stated)
31.6 nM | Cc1c(-c2cccc(Cl)c2Cl)sc2c1c(=O)n(CCCO)c(=O)n2C
